# Experimental data reported in ChEMBL document CHEMBL1201862, “PubChem BioAssay data set” (2004).
# Active and inactive are the calls of the source.
# Tests used:
# [1] = molecular target: Intestinal-type alkaline phosphatase (Mus musculus, UniProt P24822); assay: PubChem AID 488875; format: functional
# [2] = molecular target: T1, Intestinal-type alkaline phosphatase (Homo sapiens, UniProt P09923); assay: human intestinal alkaline phosphatase activators, dose response, biochemical, luminescence, uHTS hits (AID 463120); format: functional
# T1 sequence (P09923 whole entry): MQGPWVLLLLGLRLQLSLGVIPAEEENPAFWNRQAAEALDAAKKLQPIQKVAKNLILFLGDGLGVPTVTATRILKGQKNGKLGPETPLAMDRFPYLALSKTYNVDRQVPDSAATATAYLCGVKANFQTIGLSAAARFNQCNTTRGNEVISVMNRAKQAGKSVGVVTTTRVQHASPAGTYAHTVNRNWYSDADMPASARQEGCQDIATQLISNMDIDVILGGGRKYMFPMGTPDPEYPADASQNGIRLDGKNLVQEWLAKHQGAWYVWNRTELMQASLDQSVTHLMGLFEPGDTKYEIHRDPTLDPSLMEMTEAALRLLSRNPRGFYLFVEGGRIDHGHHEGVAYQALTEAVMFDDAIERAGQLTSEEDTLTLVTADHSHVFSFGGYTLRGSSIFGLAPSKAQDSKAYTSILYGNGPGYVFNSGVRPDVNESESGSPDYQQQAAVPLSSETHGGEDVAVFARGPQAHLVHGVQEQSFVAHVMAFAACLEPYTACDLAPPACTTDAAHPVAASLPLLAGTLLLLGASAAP
# [3] = molecular target: T1, Intestinal-type alkaline phosphatase; assay: human IAP activators, dose response, biochemical, luminescent, uHTS hits, set 2 (AID 488817); format: functional;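 note: potency of activators that raise enzyme activity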
# [4] = molecular target: T2, Alkaline phosphatase, tissue-nonspecific isozyme (Homo sapiens, UniProt P05186); assay: TNAP enzyme activators, dose response, selectivity assay for human IAP activator project, biochemical, TNAP isozyme, human IAP uHTS hits (AID 488886); format: functional;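 note: potency of compounds raising TNAP activity as a selectivity check on IAP activators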
# T2 sequence (P05186 whole entry): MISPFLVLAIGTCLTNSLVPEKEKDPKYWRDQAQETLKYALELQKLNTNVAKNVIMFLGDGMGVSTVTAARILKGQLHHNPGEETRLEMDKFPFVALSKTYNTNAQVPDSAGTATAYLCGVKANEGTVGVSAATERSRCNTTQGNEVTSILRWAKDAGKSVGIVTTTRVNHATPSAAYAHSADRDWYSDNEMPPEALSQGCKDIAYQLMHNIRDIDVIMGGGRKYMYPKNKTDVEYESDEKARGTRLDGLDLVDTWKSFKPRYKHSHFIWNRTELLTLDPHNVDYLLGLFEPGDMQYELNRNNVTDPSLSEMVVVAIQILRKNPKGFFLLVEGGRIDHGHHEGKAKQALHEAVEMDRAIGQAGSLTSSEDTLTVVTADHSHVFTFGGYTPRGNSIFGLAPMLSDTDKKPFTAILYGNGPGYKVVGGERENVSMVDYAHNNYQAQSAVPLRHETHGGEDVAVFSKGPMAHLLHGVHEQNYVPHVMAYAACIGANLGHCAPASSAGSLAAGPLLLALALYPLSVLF
# [5] = molecular target: Ras and Rab interactor 1/Tyrosine-protein kinase ABL1 (Homo sapiens, UniProt P00519+Q13671); format: functional;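 note: biochemical TR-FRET dose-response test measuring inhibition of binding between Rin1 and Abl proteins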
# Ras and Rab interactor 1/Tyrosine-protein kinase ABL1, sequence (P00519 whole entry): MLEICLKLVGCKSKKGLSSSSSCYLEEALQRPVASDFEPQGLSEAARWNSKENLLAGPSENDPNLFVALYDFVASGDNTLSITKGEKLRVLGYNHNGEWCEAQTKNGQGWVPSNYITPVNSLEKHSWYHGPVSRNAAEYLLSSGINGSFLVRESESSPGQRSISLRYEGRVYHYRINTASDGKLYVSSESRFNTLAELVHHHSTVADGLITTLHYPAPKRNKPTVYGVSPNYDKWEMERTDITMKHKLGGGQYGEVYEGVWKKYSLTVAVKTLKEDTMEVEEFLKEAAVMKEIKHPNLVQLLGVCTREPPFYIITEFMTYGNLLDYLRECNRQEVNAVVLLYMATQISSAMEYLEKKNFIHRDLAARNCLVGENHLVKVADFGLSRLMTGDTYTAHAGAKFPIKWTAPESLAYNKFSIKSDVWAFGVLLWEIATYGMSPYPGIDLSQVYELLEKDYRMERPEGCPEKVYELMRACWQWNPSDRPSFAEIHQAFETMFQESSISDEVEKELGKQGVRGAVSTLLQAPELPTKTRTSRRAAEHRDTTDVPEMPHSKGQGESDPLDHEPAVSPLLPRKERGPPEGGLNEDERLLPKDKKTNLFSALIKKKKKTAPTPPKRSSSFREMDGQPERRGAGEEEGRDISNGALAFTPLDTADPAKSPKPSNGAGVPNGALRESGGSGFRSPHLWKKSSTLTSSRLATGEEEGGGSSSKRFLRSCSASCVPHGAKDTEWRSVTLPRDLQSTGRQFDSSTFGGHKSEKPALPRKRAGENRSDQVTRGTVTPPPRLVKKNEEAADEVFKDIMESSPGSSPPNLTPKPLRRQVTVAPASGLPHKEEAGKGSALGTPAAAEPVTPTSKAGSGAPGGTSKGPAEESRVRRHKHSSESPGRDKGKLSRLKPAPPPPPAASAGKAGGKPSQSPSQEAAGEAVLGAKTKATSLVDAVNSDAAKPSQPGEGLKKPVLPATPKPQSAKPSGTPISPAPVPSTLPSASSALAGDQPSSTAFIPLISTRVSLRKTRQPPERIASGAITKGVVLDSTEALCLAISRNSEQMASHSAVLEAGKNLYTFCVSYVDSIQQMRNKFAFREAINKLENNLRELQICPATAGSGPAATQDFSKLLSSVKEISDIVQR
# Ras and Rab interactor 1/Tyrosine-protein kinase ABL1, sequence (Q13671 whole entry): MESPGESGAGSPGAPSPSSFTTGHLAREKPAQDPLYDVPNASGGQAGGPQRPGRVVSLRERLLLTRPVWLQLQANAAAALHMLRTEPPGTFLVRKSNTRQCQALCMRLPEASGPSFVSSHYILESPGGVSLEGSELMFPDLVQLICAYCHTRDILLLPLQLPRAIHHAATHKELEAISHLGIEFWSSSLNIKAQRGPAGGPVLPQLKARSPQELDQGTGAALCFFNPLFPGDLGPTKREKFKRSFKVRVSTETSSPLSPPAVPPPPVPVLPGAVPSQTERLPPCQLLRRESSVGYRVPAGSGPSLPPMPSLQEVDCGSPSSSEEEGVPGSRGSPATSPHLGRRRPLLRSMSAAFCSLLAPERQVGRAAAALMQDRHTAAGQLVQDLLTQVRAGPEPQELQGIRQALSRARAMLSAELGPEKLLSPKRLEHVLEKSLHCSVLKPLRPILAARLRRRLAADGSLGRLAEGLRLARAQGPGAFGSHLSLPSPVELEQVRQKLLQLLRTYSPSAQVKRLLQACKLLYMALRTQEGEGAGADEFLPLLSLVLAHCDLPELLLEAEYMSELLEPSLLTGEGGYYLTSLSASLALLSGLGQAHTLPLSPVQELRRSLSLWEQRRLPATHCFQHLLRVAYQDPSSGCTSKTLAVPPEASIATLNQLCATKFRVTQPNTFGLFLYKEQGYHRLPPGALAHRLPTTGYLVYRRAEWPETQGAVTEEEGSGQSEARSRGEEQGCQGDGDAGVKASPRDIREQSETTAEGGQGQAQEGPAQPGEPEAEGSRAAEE
# Cytochrome P450 2C9 = Cytochrome P450 2C9 (Homo sapiens, UniProt P11712)
# Cytochrome P450 2C9, sequence (P11712 whole entry): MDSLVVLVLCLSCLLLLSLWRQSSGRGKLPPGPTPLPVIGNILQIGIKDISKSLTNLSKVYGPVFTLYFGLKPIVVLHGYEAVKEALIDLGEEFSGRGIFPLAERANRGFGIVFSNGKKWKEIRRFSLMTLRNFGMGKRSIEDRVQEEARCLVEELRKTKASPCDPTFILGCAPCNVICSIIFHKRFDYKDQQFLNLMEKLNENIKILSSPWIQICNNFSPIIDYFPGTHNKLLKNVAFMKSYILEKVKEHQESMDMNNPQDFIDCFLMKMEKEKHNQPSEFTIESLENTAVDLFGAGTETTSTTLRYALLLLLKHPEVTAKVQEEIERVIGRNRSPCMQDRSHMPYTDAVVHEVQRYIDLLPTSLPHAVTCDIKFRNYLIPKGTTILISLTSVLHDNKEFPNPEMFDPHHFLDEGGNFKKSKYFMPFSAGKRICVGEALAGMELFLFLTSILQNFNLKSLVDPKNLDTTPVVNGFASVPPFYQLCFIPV
# Cytochrome P450 3A4 = Cytochrome P450 3A4 (Homo sapiens, UniProt P08684);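 note: CYP3A4 tested as one member of a cytochrome P450 panel screen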
# Cytochrome P450 3A4, sequence (P08684 whole entry): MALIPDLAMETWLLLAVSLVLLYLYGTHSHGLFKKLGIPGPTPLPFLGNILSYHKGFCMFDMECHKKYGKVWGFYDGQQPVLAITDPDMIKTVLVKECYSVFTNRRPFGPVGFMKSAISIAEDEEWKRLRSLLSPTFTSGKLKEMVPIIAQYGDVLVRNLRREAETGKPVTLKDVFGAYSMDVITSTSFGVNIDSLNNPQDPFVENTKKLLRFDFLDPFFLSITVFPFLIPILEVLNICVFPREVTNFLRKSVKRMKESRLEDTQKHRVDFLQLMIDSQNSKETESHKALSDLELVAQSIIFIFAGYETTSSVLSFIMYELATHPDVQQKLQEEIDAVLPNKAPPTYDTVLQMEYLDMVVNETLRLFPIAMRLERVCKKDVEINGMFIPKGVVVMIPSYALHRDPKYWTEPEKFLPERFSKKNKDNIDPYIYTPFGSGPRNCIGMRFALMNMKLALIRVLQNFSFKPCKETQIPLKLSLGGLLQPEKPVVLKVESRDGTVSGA
# [6] = molecular target: T3, Short transient receptor potential channel 4 (Mus musculus, UniProt Q9QUQ5); assay: mouse TRPC4 channel activators, dose response, cell-based, HEK293 TRPC4/mu-opioid, Fluo-4 calcium (AID 434937); format: functional
# T3 sequence (Q9QUQ5 whole entry): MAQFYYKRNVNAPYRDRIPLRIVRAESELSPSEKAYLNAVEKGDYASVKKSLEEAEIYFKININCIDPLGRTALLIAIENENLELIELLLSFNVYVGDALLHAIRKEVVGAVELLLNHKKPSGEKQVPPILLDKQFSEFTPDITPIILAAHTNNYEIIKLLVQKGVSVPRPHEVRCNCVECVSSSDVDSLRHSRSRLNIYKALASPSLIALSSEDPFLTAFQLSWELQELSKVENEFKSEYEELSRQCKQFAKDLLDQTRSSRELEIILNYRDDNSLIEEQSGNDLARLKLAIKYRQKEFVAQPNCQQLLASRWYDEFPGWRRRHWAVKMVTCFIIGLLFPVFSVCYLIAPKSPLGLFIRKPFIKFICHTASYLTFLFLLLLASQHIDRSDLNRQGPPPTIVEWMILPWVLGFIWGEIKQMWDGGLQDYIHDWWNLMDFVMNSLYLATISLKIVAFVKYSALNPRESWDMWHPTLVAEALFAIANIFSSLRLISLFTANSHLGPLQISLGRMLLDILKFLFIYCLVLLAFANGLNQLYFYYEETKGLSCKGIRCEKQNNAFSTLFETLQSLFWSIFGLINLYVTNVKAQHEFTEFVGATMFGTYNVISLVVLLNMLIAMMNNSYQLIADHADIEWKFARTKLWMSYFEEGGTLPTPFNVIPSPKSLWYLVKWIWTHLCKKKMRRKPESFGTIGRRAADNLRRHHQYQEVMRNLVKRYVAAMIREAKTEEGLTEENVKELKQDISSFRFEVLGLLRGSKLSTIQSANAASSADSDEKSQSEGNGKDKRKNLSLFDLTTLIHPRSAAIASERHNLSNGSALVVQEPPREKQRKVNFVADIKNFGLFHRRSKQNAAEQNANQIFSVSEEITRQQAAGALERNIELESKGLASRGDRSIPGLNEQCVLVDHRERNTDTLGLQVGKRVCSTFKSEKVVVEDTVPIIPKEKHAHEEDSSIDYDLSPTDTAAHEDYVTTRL
# [7] = molecular target: T4, DNA repair protein RAD52 homolog (Homo sapiens, UniProt P43351); format: functional, biochemical
# T4 sequence (P43351 whole entry): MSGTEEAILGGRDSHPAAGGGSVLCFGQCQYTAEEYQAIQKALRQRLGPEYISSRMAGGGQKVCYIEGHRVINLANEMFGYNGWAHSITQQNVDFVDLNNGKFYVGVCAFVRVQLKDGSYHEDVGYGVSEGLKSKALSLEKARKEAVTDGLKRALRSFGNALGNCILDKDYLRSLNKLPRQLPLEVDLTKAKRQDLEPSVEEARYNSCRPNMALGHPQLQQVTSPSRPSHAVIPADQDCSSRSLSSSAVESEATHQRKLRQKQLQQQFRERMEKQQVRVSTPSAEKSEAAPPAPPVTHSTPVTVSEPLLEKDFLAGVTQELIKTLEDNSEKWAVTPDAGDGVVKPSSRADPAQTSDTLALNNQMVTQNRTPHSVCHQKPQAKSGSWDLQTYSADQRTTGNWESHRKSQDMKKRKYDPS
# [8] = THP-1 cell cytotoxicity, dose response, cytotoxicity control for non-replicating M. tuberculosis project (AID 489025); format: functional
# [9] = Luminescence Cell-Based Dose Retest to Confirm Inhibitors of Cancer Stem Cells. [Related pubchem assays (depositor defined):AID2717, AID2721]; format: functional; settings: Homo sapiens
# [10] = molecular target: T5, Microphthalmia-associated transcription factor (Homo sapiens, UniProt O75030); assay: TRPM1 promoter luciferase signal decrease, dose response, MITF inhibitor project, cell-based, SK-MEL-5, cherry-picked, set 3 (AID 493073); format: functional
# T5 sequence (O75030 whole entry): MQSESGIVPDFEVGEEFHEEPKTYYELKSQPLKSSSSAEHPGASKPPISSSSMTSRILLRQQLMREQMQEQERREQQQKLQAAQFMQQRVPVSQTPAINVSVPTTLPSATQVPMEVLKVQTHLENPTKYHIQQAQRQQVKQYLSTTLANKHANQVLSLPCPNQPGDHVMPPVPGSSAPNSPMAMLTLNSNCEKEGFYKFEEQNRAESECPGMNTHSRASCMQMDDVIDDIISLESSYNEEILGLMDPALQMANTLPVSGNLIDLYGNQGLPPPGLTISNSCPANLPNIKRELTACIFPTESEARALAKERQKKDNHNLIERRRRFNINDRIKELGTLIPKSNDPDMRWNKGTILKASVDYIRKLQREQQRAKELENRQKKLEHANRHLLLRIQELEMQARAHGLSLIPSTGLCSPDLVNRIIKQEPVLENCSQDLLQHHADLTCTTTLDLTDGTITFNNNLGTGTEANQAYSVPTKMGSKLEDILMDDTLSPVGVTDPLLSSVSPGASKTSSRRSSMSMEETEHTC
# cells = format: functional
# A-375 [11] = assay: MITF: Counter assay: A375 proliferation Measured in Cell-Based System Using Plate Reader - 2084-03_Inhibitor_Dose_DryPowder_Activity. [Related pubchem assays (depositor defined):AID488944]; format: functional; settings: Homo sapiens
# A-375 [12] = assay: A375 melanoma cell viability reduction, dose response, counter-screen for MITF modulator project, cherry-pick samples, set 2 (AID 540335); format: functional, cell-based; settings: Homo sapiens
# HEK293 [13] = assay: cells; settings: Homo sapiens
# HEK293 [14] = assay: cells; settings: Homo sapiens; remark: listed apart in the source
# Escherichia coli = assay: microbe, parasite or virus in culture
# [15] = inhibitors of HIV Env-driven cell fusion, dose response, cherry-pick (AID 652057); format: functional, cell-based
# [16] = ZM109 Env clade C HIV-1 fusion inhibitors, dose response, HeLa effector, CEM target cells, luciferase, cherry-pick (AID 652058); format: functional, cell-based
# [17] = off-target signal loss in HeLa-CEM21 co-culture – HeLa F-luc CTL cells, cherry-picked, counter-screen for HIV-1 Env fusion inhibitor project, dose response (AID 652040); format: functional, cell-based;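 note: potency for signal decrease marking cytotoxic or nonspecific inhibition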
# [18] = inhibitors of clade B AD8 Env fusion, dose response, cell-based, cherry-pick (AID 652062); format: functional;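 note: luciferase signal from cell-cell fusion driven by HIV-1 clade B AD8 Env; potency is for inhibitors of fusion seen as a drop in luminescence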
# [19] = molecular target: Delta-type opioid receptor (Homo sapiens, UniProt P41143); assay: Counterscreen for agonists of heterodimerization of the mu 1 (OPRM1) and delta 1 (OPRD1) opioid receptors: Luminescence-based cell-based high throughput dose response assay to identify agonists of OPRD1 homodimerization. [Related pubchem assays (depositor defined):AID504326, AID504355, AID504692, AID504904, AID504905]; format: functional
# Delta-type opioid receptor, sequence (P41143 whole entry): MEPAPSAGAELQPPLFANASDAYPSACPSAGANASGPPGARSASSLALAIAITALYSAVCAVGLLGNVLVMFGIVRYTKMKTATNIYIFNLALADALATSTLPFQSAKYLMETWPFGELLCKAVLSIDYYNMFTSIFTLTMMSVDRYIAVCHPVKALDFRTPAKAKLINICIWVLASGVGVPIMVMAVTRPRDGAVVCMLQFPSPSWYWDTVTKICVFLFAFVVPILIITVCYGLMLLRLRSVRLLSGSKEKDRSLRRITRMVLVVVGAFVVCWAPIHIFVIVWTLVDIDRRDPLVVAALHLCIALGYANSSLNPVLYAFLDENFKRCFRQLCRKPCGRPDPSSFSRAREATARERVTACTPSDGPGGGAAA
# Mu-type opioid receptor = Mu-type opioid receptor (Homo sapiens, UniProt P35372); assay: Counterscreen for agonists of heterodimerization of the mu 1 (OPRM1) and delta 1 (OPRD1) opioid receptors: Luminescence-based cell-based high throughput dose response assay to identify agonists of OPRM1 homodimerization.; format: functional;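 note: U2OS cells expressing OPRM1 and beta-arrestin as split beta-galactosidase partners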
# Mu-type opioid receptor, sequence (P35372 whole entry): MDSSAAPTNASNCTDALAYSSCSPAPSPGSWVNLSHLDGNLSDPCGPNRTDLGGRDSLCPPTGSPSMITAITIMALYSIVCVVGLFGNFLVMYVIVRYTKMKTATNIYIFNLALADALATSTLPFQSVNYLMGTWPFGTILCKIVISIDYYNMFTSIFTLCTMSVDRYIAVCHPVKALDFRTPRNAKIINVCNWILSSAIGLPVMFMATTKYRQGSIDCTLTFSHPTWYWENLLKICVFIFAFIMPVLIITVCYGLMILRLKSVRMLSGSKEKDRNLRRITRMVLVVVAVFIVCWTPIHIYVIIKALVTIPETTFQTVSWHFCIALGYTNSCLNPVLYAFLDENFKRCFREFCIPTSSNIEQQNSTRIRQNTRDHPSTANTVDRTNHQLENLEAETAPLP
# [20] = molecular target: 5-hydroxytryptamine receptor 5A (Homo sapiens, UniProt P47898); assay: Counterscreen for agonists of OPRM1-OPRD1 heterodimerization: luminescence-based cell-based high throughput dose response assay to identify agonists of 5-hydroxytryptamine (serotonin) 5A receptor (HTR5A). [Related pubchem assays (depositor defined):AID504326, AID504355, AID504692, AID504904, AID504905]; format: functional
# HEK293 [21] = assay: NOD1 signaling inhibitors, primary screen, cell-based, luminescence, uHTS (AID 1578); format: functional; settings: Homo sapiens
# HEK293 [22] = assay: cells; format: functional, cell-based; settings: Homo sapiens
# HEK293 [23] = assay: cells; format: functional, cell-based; settings: Homo sapiens; remark: listed apart in the source
# HEK293 [24] = assay: NOD2 signaling inhibitors in MDP-stimulated cells, cell-based, uHTS, luminescence (AID 2001); format: functional; settings: Homo sapiens
# [25] = molecular target: COUP transcription factor 2 (Homo sapiens, UniProt P24468); assay: Luminescence-based cell-based high throughput dose response assay to identify inhibitors of COUP-TFII (NR2F2).; format: functional;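 note: HEK293 cells transiently cotransfected with COUP-TFII expression vector and reporter; luciferase reporter luminescence driven by COUP-TFII from the pX2-168 reporter plasmid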
# Bcl-2-related protein A1 = molecular target: T6, Bcl-2-related protein A1 (Mus musculus, UniProt Q07440); format: functional;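 note: confirmatory dose–response counterscreen on Bfl-1, used to check hits from a UBC13 polyubiquitin inhibitor campaign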
# T6 sequence (Q07440 whole entry): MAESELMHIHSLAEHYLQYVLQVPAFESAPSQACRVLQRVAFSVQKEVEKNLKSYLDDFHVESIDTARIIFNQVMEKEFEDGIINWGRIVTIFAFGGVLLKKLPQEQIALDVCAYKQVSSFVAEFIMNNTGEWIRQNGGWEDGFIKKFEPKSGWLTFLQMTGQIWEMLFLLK
# [26] = molecular target: T7, Ubiquitin-conjugating enzyme E2 N (Homo sapiens, UniProt P61088); format: functional
# T7 sequence (P61088 whole entry): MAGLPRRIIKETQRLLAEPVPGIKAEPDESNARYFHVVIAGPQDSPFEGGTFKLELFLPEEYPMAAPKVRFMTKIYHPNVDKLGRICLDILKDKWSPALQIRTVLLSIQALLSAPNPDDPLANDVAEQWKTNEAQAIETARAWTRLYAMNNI
# [27] = molecular target: T7, Ubiquitin-conjugating enzyme E2 N; format: functional; remark: listed apart in the source
# Intestinal-type alkaline phosphatase (Mus musculus, UniProt P24822), sequence (P24822 whole entry): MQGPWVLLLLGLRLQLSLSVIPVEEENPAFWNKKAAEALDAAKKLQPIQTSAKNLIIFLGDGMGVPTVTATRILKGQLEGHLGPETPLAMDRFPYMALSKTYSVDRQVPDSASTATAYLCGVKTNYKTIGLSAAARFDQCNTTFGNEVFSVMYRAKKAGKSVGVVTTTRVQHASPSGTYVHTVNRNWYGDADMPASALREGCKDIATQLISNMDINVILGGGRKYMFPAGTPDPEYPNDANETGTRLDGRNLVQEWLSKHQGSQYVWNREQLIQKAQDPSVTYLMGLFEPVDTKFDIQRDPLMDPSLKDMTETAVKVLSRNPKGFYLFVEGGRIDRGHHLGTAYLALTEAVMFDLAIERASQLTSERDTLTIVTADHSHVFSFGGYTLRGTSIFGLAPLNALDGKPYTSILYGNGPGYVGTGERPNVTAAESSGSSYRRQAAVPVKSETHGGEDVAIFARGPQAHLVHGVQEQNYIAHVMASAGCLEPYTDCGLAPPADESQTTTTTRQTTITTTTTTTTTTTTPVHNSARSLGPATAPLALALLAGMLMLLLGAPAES
compound,measurement,setting,value
CC(C)n1cc(CN2CCC(C(=O)Nc3cccc(-c4cccc(Cl)c4)c3)CC2)cn1,EC50,[1],88 µM (active)
same,EC50,[2],82.8 µM (active)
same,EC50,[3],67.3 µM (active)
same,EC50,[4],66.1 µM (active)
same,IC50,[5],16.4 µM (inactive)
O=C(c1ccco1)N1CCC2(CC1)CN(C(c1ccccc1)c1ccccc1)C2,AC50,Cytochrome P450 2C9,25.1 µM (inconclusive)
same,AC50,Cytochrome P450 3A4,inconclusive
Cc1nc2c(c(-c3ccccc3)c1C#N)C(=O)c1ccccc1-2,AC50,Cytochrome P450 3A4,inconclusive
CCN(c1ccccc1)S(=O)(=O)c1ccc(C(=O)N(CCCN(C)C)c2nc3cc4c(cc3s2)OCO4)cc1,EC50,[6],5.31 µM (active)
same,AC50,[7],11.1 µM (active)
CC(C)c1ccc(N2C(=O)NC(=O)/C(=C/C=C/c3ccco3)C2=O)cc1,CC50,[8],31.6 µM (active)
same,AC50,[9],1.81 µM (active)
same,AC50,[10],5.89 µM (active)
same,IC50,cells,17.4 µM (active)
same,AC50,A-375 [11],> 35 µM (active)
same,AC50,A-375 [12],> 35 µM (active)
same,EC50,HEK293 [13],> 59.6 µM (inactive)
same,EC50,HEK293 [14],> 59.6 µM (inactive)
COCc1cc(O)nc2cc(NC(=O)C(F)(F)F)c(C)cc12,AC50,Escherichia coli,57.2 µM (active)
CCCNC(=O)c1ccccc1NC(=O)c1ccccc1N(C)S(=O)(=O)c1ccccc1,AC50,[15],1.83 µM (active)
same,AC50,[16],3.19 µM (active)
same,AC50,[17],3.2 µM (active)
same,AC50,[18],8.47 µM (active)
same,EC50,HEK293 [13],> 59.6 µM (inactive)
same,EC50,HEK293 [14],> 59.6 µM (inactive)
CN(C)C(CNC(=O)c1cnc(Cl)c(Cl)c1)c1ccccc1 (stereo unspecified),EC50,[6],0.0173 µM (active)
same,EC50,[19],1.07 µM (active)
same,EC50,Mu-type opioid receptor,4.67 µM (active)
same,EC50,[20],> 92.4 µM (inactive)
COc1ccccc1CN1CCC(n2nccc2NC(=O)CCCc2ccccc2)CC1,EC50,[1],51.3 µM (active)
same,EC50,[2],74 µM (active)
same,EC50,[3],60.4 µM (active)
same,EC50,[4],75.8 µM (active)
C=CC[n+]1c(-c2ccc(Cl)cc2Cl)csc1Nc1c(C)n(C)n(-c2ccccc2)c1=O,EC50,HEK293 [21],5.29 µM (active)
same,IC50,HEK293 [22],6.87 µM (active)
same,IC50,HEK293 [23],> 20 µM (inactive)
same,IC50,HEK293 [24],7.13 µM (active)
same,IC50,[25],9.47 µM (active)
CCCCn1c(=O)c(C(=O)Nc2ccccc2S(N)(=O)=O)c(O)c2ccccc21,IC50,Bcl-2-related protein A1,2.02 µM (active)
same,IC50,[26],15.5 µM (active)
same,IC50,[27],> 20 µM (inactive)
